Our source for the inhibition, IC50 and Ratio IC50 values is ChEMBL document CHEMBL2057073, “Synthesis and structure-activity relationship studies of 1,3-disubstituted 2-propanols as BACE-1 inhibitors” (Bioorg Med Chem Lett, 2012).

Molecules are shown by their SMILES.

The target of test [1] is T1, Beta-secretase 1 (Homo sapiens, UniProt P56817). The test can be described thus: Inhibition of BACE1 at 100 uM by FRET assay.
Test [2] has as its target T1, Beta-secretase 1. The test can be described thus: Inhibition of BACE1 at 50 uM by FRET assay.
Test [3] concerns the target T1, Beta-secretase 1. The test can be described thus: Inhibition of BACE1 at 25 uM by FRET assay.
Test [4] has as its target T1, Beta-secretase 1. Nature of the test: Inhibition of BACE1 by FRET assay.
The target of the next test is Cathepsin D (Homo sapiens, UniProt P07339). Nature of the test: Inhibition of cathepsin D by FRET assay.
The species named for the next test is Homo sapiens. The test can be described thus: Selectivity ratio of IC50 for cathepsin D to IC50 for BACE1.

Sequence of Cathepsin D (P07339 65-162 limits assumed): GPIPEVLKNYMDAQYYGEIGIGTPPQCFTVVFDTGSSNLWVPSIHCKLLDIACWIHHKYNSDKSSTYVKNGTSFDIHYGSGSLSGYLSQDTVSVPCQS
Sequence of Cathepsin D (P07339 169-412 limits assumed): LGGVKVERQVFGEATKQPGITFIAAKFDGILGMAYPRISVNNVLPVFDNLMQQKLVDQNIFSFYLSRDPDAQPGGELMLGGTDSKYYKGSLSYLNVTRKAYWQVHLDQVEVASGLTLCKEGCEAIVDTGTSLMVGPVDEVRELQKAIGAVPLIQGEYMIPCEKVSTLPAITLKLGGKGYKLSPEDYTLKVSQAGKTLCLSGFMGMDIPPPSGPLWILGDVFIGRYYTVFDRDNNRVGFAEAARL
T1 sequence (P56817 whole entry): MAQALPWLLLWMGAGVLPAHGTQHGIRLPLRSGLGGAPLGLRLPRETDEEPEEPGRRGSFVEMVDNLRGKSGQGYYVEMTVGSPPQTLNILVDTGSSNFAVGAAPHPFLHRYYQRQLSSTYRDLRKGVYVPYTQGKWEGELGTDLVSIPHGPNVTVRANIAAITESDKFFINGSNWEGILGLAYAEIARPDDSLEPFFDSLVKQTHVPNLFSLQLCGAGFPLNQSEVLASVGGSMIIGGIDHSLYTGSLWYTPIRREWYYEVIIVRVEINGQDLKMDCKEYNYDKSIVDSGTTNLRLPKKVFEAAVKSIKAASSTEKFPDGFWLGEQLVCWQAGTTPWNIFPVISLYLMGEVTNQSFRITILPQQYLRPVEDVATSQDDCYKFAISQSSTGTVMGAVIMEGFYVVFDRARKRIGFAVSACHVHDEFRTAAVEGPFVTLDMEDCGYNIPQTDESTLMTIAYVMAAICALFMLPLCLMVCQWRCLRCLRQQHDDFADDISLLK

In the case of `OC(CSc1ccc2ccccc2c1)Cn1c2ccccc2c2ccccc21` (configuration not stated), the inhibition came to 76% against Beta-secretase 1 [1], 74% on Beta-secretase 1 [2] and 64% against Beta-secretase 1 [3]. Also, the values for the IC50 on Beta-secretase 1 [4] and against Cathepsin D were 4.93 µM and more than 300 µM, respectively. Besides, the Ratio IC50 in the test filed under Homo sapiens is 50.
For `OC(CSc1ccccc1Cl)Cn1c2c(c3ccccc31)CCCC2` (configuration not stated), the inhibition against Beta-secretase 1 [1] stood at 92%; on Beta-secretase 1 [2], 99%; against Beta-secretase 1 [3], 68%. The values for the IC50 at Beta-secretase 1 [4] and against Cathepsin D were 8.28 µM and more than 300 µM, respectively.
For the compound `OC(Cn1c2ccccc2c2ccccc21)Cn1c2ccccc2c2ccccc21`, the half-maximal inhibitory concentration (IC50) at Beta-secretase 1 [4] is 0.71 µM; against Cathepsin D, more than 300 µM. Moreover, the Ratio IC50 in the test filed under Homo sapiens was more than 422.
`OC(CSc1ccc2ccccc2c1)Cn1c(-c2ccccc2)cc2ccccc21` (configuration not stated): the IC50 at Beta-secretase 1 [4] was 6.66 µM; against Cathepsin D, more than 300 µM. For the same compound, the Ratio IC50 in the test filed under Homo sapiens worked out at 50.

In general, inhibition refers to the relative decrease from the control value, in per cent. The IC50 is the concentration that inhibits the measured activity by half.
